For the data set, the target named is IRF4. The conditions noted are these: ASO.

Results on 87 sequences are retold here after the OligoGym collection.

Values joined by “and” are separate entries in the source; they are usually repeats but may differ in a detail not shown here. Equal entries are not always repeated. After the bases stand the sugars from the 5' end (letter, count) and the backbone: PS all phosphorothioate, else s phosphorothioate and o phosphodiester by linkage. Methylation of C is not given here. e = 2'-O-(2-methoxyethyl) (MOE); k = constrained ethyl (cEt); d = 2'-deoxy (DNA)

Take GGATTGATGTGATAGC (sugars k3 d10 k3, PS): the target mRNA inhibition was 7% and 24% (MM.1R, 0.0625 µM); 24% and 20% (MM.1R, 0.25 µM); 59% and 60% (MM.1R, 1 µM); 88% (MM.1R, 4 µM).
Consider GGCAACCATTTTCACA (sugars k3 d10 k3, PS), for which the target mRNA inhibition (SK-MEL-28, 4 µM) is -17%.
Same read-out and setting: in the case of GGCAACCTGCATTTGC (sugars k3 d10 k3, PS) it was -13%.
On the same count and under the same terms, the same measure for GGCAAGTTCTGCTGTC (sugars k3 d10 k3, PS): 58%; for GGCACAAGCATAAAAG (sugars k3 d10 k3, PS): 1%.
GGCACAGACATACCTA (sugars k3 d10 k3, PS): the target mRNA inhibition (SK-MEL-28, 4 µM) was determined as 48%.
On the same count and under the same terms, in the case of GGCACAGCCGTCCGCC (sugars k3 d10 k3, PS) it was 11%.
With “GGCACATCAATGTTTT (sugars kkdddddddddkdkdk, PS)”, the target mRNA inhibition (MM.1R, 1 µM) was 26% and 16%.
On to “GGCACATCAATGTTTT (sugars kkdddddddddkekek, PS)”, for which the target mRNA inhibition (MM.1R, 1 µM) was 23% and 19%.
As to GGCACTACTTCCAAAA (sugars k3 d10 k3, PS), the target mRNA inhibition (SK-MEL-28, 4 µM) amounted to 31%.
The same measure, in the same setting: in the case of GGCAGACCTTATGCTT (sugars k3 d10 k3, PS) it was 21%.
Same read-out and setting: in the case of GGCAGCACCGTGTGGA (sugars k3 d10 k3, PS) it was 53%; in that of GGCAGTTCTTTCAGCA (sugars k3 d10 k3, PS), 37%.
With GGCATCATGTAGTTGT (sugars k3 d10 k3, PS), the target mRNA inhibition (MM.1R, 1 µM) was -1%.
As for GGCCACCGACTCTTTT (sugars k3 d10 k3, PS), the target mRNA inhibition (SK-MEL-28, 4 µM) was 13%.
Turning to GGCCGCCGTGAGCTTG (sugars k3 d10 k3, PS), the target mRNA inhibition (SK-MEL-28, 4 µM) came to 3%.
On the same count and under the same terms, the same measure for GGCCGGCCCGGGCGCA (sugars k3 d10 k3, PS): 1%; for GGCCTGGAGGTGACGC (sugars k3 d10 k3, PS): 41%.
With GGCCTTAATGGTGATT (sugars k3 d10 k3, PS), the target mRNA inhibition (MM.1R, 1 µM) is -16%.
Take GGCCTTGGAGCCCAAA (sugars k3 d10 k3, PS): under “SK-MEL-28, 4 µM”, the target mRNA inhibition amounted to 20%.
On to GGCCTTTACAAAGAAC (sugars k3 d10 k3, PS), for which, for the setting “SK-MEL-28, 4 µM”, the target mRNA inhibition is -19%.
In the case of GGCGCATAGGTCCTTC (sugars k3 d10 k3, PS), the target mRNA inhibition (MM.1R, 1 µM) is -7%.
In the case of GGCGGATAGATCTGTG (sugars k3 d10 k3, PS), where the note is “SK-MEL-28, 4 µM”, the target mRNA inhibition was determined as 51%.
Same read-out and setting: in the case of GGCTAATGAAATGTCA (sugars k3 d10 k3, PS) it was 64%.
Still for that read-out and setting: the same measure for GGCTCATGGACATCTG (sugars k3 d10 k3, PS): 36%.
In the case of GGCTCTGCAAACGACA (sugars k3 d10 k3, PS), the target mRNA inhibition (MM.1R, 1 µM) is 0%.
Still for that read-out and setting: in the case of GGCTGAAACGGTCAGC (sugars k3 d10 k3, PS) it was -27%.
GGCTGATAATTAATCT (sugars k3 d10 k3, PS): the target mRNA inhibition (SK-MEL-28, 4 µM) was 47%.
For GGGAACAAAAGGTTCC (sugars k3 d10 k3, PS), the target mRNA inhibition (SK-MEL-28, 4 µM) is -11%.
Same read-out and setting: in the case of GGGAATCCTTAATTAT (sugars k3 d10 k3, PS) it was 12%.
For the sequence “GGGATTATATACTGGT (sugars k2 d9 e3 k2, PS)”, the target mRNA inhibition (MM.1R, 1 µM) came out at 35%.
The same measure, in the same setting: in the case of “GGGATTATATACTGGT (sugars kddddddddddkekek, PS)” it was 34%; in that of “GGGATTATATACTGGT (sugars kkddddddddddkeke, PS)”, 46%; in that of “GGGATTATATACTGGT (sugars kkdddddddddekeke, PS)”, 34%.
Consider GGGCACAAGCATAAAA (sugars k3 d10 k3, PS), for which the target mRNA inhibition (SK-MEL-28, 4 µM) was 20%.
Regarding GGGCACCCCGCCCCGA (sugars k3 d10 k3, PS), for the setting “SK-MEL-28, 4 µM”, the target mRNA inhibition came out at 1%.
As for GGGCAGGTTTCATTTC (sugars k3 d10 k3, PS), the target mRNA inhibition (SK-MEL-28, 4 µM) is 32%.
The same measure, in the same setting: in the case of GGGCTGTCCCTAGTGC (sugars k3 d10 k3, PS) it was -9%; in that of GGGTAAGCACTGAGGC (sugars k3 d10 k3, PS), 61%.
Consider GGGTATTTATAACCGG (sugars k3 d10 k3, PS), for which the target mRNA inhibition (MM.1R, 0.0625 µM) was -16% and 5% and 1%; the target mRNA inhibition (MM.1R, 0.074 µM) is -4%; the target mRNA inhibition (MM.1R, 0.222 µM) was -19%; the target mRNA inhibition (MM.1R, 0.666 µM) is -4%; the target mRNA inhibition (MM.1R, 1 µM) was 1% and 7% and 26%; the target mRNA inhibition (MM.1R, 2 µM) came out at 9%. The target mRNA inhibition by setting is: (MM.1R, 4 µM) 12% and 24% and 34%; (SK-MEL-28, 4 µM) 59%.
For GGGTGGTAGAATGTGA (sugars k3 d10 k3, PS), for the setting “MM.1R, 1 µM”, the target mRNA inhibition came out at 33%.
Consider GGTAATCTTCTGGATT (sugars k3 d10 k3, PS), for which the target mRNA inhibition (SK-MEL-28, 4 µM) is 30%.
As for GGTAGTAGACCACAGT (sugars k3 d10 k3, PS), where the note is “MM.1R, 1 µM”, the target mRNA inhibition is 23%.
GGTCAAAAAGATGCAG (sugars k3 d10 k3, PS): the target mRNA inhibition (SK-MEL-28, 4 µM) was 51%.
On to GGTCAACACTTGGAGA (sugars k3 d10 k3, PS), for which the target mRNA inhibition (MM.1R, 1 µM) is -23%.
Take GGTCATACCCTGGATC (sugars k3 d10 k3, PS): the target mRNA inhibition (SK-MEL-28, 4 µM) was 49%.
For the sequence GGTCTGAGTTGTACAG (sugars k3 d10 k3, PS), under “MM.1R, 1 µM”, the target mRNA inhibition came to 20%.
Regarding GGTGAGAGACGAAAAC (sugars k3 d10 k3, PS), where the note is “MM.1R, 1 µM”, the target mRNA inhibition was -16%.
As for GGTGTGTAAGGTCTGA (sugars k3 d10 k3, PS), the target mRNA inhibition (SK-MEL-28, 4 µM) was found to be 41%.
Turning to “GGTTGGCTGGTCTTTG (sugars k2 d9 e3 k2, PS)”, the target mRNA inhibition by setting is: (MM.1R, 0.0625 µM) 44%; (MM.1R, 0.25 µM) 52%; (MM.1R, 1 µM) 69% and 65%; (MM.1R, 4 µM) 84%.
With GTAAAGCCCAAAGTTA (sugars k3 d10 k3, PS), the target mRNA inhibition (SK-MEL-28, 4 µM) turned out to be 27%.
On the same count and under the same terms, the same measure for GTAAAGGAGTGCAGGA (sugars k3 d10 k3, PS): 9%; for GTAACAACGACACACG (sugars k3 d10 k3, PS): 59%.
Still for that read-out and setting: the same measure for GTAACAGGCTATCAGG (sugars k3 d10 k3, PS): 45%; for GTAATAGTAAATATCC (sugars k3 d10 k3, PS): 61%; for GTACTTGCCGCTGTCG (sugars k4 d8 k4, PS): 36%.
For the sequence GTACTTTCTCAAAACC (sugars k3 d10 k3, PS), the target mRNA inhibition (SK-MEL-28, 4 µM) came to 70%.
Still for that read-out and setting: the same measure for GTAGTATGAGAAACGG (sugars k3 d10 k3, PS): 83% and 80%.
Same read-out and setting: the same measure for GTATGAGAAACGGCCT (sugars k3 d10 k3, PS): 59%.
Regarding GTATTACTCTTAGGCA (sugars k3 d10 k3, PS), the target mRNA inhibition turned out to be 13% (MM.1R, 0.0625 µM); 15% (MM.1R, 0.074 µM); 7% (MM.1R, 0.222 µM); 24% (MM.1R, 0.25 µM); 21% (MM.1R, 0.666 µM); 41% (MM.1R, 1 µM). Moreover, the target mRNA inhibition is, setting by setting: (MM.1R, 2 µM) 51%; (MM.1R, 4 µM) 69%; (SK-MEL-28, 4 µM) 64%.
As to GTATTTATGCCCTCGC (sugars k3 d10 k3, PS), under “SK-MEL-28, 4 µM”, the target mRNA inhibition was determined as 53%.
Still for that read-out and setting: the same measure for GTCAAACCCTACTGGG (sugars k3 d10 k3, PS): 31%.
With GTCAAACTATAATTGG (sugars k3 d10 k3, PS), the target mRNA inhibition (SK-MEL-28, 4 µM) came to 61%.
With GTCAAAGAGCTTGCAG (sugars k3 d10 k3, PS), the target mRNA inhibition (SK-MEL-28, 4 µM) came to 44%.
On the same count and under the same terms, the same measure for GTCAACATACACATAG (sugars k3 d10 k3, PS): 58%; for GTCACAAAGCAATTGA (sugars k3 d10 k3, PS): 67%.
Turning to GTCATGGGACATTGGT (sugars k3 d10 k3, PS), under “MM.1R, 1 µM”, the target mRNA inhibition worked out at 26%.
For the sequence GTCCAGGTTGCTGGCG (sugars k3 d10 k3, PS), the target mRNA inhibition (SK-MEL-28, 4 µM) came to 53%.
GTCCATGGGAGATCCG (sugars k3 d10 k3, PS): under “SK-MEL-28, 4 µM”, the target mRNA inhibition was 52%.
Turning to GTCCTGCTTGCCCGCG (sugars k4 d8 k4, PS), the target mRNA inhibition (SK-MEL-28, 4 µM) is 14%.
In the case of GTCTACATCTACTCCA (sugars k3 d10 k3, PS), for the setting “SK-MEL-28, 4 µM”, the target mRNA inhibition stood at 38%.
As to GTCTACTGCTGTACTT (sugars k3 d10 k3, PS), the target mRNA inhibition (SK-MEL-28, 4 µM) is 52%.
With GTCTCTCACGCAGTGC (sugars k3 d10 k3, PS), for the setting “SK-MEL-28, 4 µM”, the target mRNA inhibition was 50%.
Same read-out and setting: in the case of GTCTTAGGTGTTCAAG (sugars k3 d10 k3, PS) it was 56%; in that of GTGAAACTGAGAGTGC (sugars k3 d10 k3, PS), -20%; in that of GTGAACATGCCACTCA (sugars k3 d10 k3, PS), 62%.
On to GTGACCCACATAACTC (sugars k3 d10 k3, PS), for which the target mRNA inhibition (MM.1R, 1 µM) amounted to 7%.
Regarding GTGACTTAATTCTGGG (sugars k3 d10 k3, PS), the target mRNA inhibition (SK-MEL-28, 4 µM) was 51%.
As to GTGACTTGCATCCATG (sugars k3 d10 k3, PS), for the setting “MM.1R, 1 µM”, the target mRNA inhibition came out at 62%.
On the same count and under the same terms, in the case of “GTGATGTCAGGTTTTC (sugars k2 d9 e3 k2, PS)” it was 38%; in that of “GTGATGTCAGGTTTTC (sugars kddddddddddkekek, PS)”, 22%; in that of GTGCACTCGCGCAAAG (sugars k3 d10 k3, PS), -5%.
Turning to GTGCAGTTCCGTAGTC (sugars k3 d10 k3, PS), the target mRNA inhibition (SK-MEL-28, 4 µM) was 21%.
As for GTGCTCTTACAGCCTC (sugars k3 d10 k3, PS), where the note is “MM.1R, 1 µM”, the target mRNA inhibition is -15%.
For the sequence GTGGCATCATGTAGTT (sugars k3 d10 k3, PS), the target mRNA inhibition (SK-MEL-28, 4 µM) is 27%.
Same read-out and setting: in the case of GTGGGAGTCGGAGCTC (sugars k3 d10 k3, PS) it was 17%.
As for “GTGTCTAAAGTCCCAT (sugars kdddddddddkekeke, PS)”, for the setting “MM.1R, 1 µM”, the target mRNA inhibition stood at 5%.
